From ChEMBL document CHEMBL1201862, “PubChem BioAssay data set” (2004)
Where a name gives a salt, the structure may show the parent alone. Active and inactive are the calls of the source.

Tests used:
Format in all cases: functional
[1] = target: T1, Replicative DNA helicase DnaB (Mycobacterium tuberculosis, UniProt P9WMR3); assay: DnaB intein splicing inhibitors, dose response, biochemical, cell-free fluorescence (AID 449749)
T1 sequence (P9WMR3 whole entry): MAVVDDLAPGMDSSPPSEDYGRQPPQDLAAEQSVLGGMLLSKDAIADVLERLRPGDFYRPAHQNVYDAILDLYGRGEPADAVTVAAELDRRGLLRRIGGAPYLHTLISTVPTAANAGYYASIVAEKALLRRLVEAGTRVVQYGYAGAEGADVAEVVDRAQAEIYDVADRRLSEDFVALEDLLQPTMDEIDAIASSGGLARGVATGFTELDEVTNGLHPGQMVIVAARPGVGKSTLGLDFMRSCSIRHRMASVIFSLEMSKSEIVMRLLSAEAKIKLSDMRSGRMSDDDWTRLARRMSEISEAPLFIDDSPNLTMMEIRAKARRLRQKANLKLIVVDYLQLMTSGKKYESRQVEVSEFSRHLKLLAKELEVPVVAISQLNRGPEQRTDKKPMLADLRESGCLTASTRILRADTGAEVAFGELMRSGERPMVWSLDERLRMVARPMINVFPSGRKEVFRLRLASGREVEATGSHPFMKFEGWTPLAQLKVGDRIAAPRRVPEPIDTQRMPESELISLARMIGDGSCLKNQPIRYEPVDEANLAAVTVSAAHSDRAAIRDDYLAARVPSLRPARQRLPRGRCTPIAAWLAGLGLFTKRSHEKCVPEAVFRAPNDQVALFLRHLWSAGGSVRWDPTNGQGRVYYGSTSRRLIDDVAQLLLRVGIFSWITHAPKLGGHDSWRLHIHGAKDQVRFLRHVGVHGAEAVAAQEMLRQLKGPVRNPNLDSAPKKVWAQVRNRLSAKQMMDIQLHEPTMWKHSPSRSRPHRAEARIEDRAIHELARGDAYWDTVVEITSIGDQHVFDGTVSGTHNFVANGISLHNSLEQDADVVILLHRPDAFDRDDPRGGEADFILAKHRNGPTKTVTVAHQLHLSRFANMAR

[2] = target: T2, Short transient receptor potential channel 4 (Mus musculus, UniProt Q9QUQ5); assay: calcium entry via TRPC4 opening agents – cell-based, HEK293 TRPC4/mu-opioid, Fluo-4 calcium, dose response (AID 434937)
T2 sequence (Q9QUQ5 whole entry): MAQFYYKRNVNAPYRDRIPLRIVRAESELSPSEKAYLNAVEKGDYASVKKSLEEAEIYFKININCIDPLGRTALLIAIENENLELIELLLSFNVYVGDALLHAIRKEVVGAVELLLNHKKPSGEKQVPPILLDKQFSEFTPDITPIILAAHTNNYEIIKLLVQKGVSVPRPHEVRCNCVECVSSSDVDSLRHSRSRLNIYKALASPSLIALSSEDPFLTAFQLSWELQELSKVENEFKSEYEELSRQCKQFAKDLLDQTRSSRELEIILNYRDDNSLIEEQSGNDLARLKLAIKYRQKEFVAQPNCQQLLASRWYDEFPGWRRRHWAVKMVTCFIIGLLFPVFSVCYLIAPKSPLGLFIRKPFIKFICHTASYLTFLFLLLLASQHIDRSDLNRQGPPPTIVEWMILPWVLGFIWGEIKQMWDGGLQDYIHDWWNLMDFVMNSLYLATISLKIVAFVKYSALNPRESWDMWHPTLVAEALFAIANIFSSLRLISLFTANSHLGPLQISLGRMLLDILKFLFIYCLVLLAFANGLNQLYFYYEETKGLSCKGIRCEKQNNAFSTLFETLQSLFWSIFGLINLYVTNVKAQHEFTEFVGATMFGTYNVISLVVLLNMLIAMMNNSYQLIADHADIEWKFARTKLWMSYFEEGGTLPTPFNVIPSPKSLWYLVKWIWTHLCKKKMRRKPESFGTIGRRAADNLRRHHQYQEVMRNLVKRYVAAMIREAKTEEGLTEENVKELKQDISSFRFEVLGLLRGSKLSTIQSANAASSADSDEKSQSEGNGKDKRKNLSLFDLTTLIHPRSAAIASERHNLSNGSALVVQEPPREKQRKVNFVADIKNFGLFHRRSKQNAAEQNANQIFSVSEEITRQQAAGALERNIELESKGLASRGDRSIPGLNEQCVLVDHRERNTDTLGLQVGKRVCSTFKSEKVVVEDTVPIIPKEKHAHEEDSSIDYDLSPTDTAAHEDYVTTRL

Protein RecA = target: T3, Protein RecA (Mycobacterium tuberculosis, UniProt P9WHJ3); assay: Fluorescence Cell-Free Homogeneous Dose Retest to Identify Inhibitors of RecA-Intein Splicing Activity. [Related pubchem assays (depositor defined):AID2097, AID2223, AID489010, AID492950]
T3 sequence (P9WHJ3 whole entry): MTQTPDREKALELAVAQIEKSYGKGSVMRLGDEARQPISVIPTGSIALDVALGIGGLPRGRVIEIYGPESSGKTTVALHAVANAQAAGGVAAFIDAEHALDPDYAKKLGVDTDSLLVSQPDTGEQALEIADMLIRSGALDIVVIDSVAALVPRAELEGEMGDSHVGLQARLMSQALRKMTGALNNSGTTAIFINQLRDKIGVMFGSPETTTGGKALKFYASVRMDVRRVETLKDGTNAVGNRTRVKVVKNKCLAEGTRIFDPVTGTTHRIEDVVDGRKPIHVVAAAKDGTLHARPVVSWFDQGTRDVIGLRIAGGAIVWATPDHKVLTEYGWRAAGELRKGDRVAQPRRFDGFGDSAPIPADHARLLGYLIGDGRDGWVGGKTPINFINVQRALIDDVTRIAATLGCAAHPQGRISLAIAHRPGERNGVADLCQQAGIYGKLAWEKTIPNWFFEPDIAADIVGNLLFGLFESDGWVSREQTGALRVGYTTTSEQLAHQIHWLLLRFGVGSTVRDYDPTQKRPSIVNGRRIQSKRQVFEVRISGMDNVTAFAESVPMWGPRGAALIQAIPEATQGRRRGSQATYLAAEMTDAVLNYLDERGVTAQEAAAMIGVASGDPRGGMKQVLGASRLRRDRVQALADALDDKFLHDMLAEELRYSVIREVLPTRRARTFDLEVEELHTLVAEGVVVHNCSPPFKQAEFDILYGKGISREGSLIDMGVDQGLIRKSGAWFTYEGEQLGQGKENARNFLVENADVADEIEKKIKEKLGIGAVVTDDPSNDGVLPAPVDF

[3] = target: T4, Sentrin-specific protease 8 (Homo sapiens, UniProt Q96LD8);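 further: luminescence read-out of SENP8 inhibition, dose-response confirmation following an ultra-high-throughput screen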
T4 sequence (Q96LD8 whole entry): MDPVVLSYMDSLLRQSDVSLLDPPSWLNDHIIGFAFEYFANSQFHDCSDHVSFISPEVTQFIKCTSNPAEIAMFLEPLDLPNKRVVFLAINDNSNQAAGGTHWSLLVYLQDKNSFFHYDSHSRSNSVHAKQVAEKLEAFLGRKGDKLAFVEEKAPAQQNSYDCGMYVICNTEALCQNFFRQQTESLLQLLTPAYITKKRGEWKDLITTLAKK

SMILES | AC50 [1] | EC50 [2] | EC50 (Protein RecA) | IC50 [3]
CC[C@@H](CO)NC(=O)[C@@H]1C=C2c3cccc4c3c(cn4C)C[C@H]2N(C)C1 [METHYSERGIDE MALEATE] | > 380 µM (inactive) | 1.5 µM (active) | 237 µM (active) | –
CCC(C)n1c(NC(=O)c2ccccc2)c(C#N)c2nc3ccccc3nc21 (stereo not given) | – | – | – | 2.24 µM (active)
CCN1/C(=C\c2ccc3ccccc3[n+]2CC)Sc2cc(C)ccc21 | – | 4.73 µM (active) | – | –
O=C(CCl)Oc1ccc2occ(C(=O)c3cccs3)c2c1 | 16.8 µM (active) | – | 19.3 µM (active) | 38.2 µM (active)
CCCCCCCCCCOC(=O)C[n+]1c(COc2ccc(C)cc2)n(C)c2ccccc21 | 3.82 µM (active) | – | 11.7 µM (active) | –
